In patent US12264156B2, “Compounds and pharmaceutical compositions thereof for the treatment of diseases” (GALAPAGOS NV, priority 2018, dated 2025):

Legend:
Type in all cases: biochemical
Details in all cases: ADP-Glo SIK kinase assay
SIK1 = biological target: T1, SIK1 (Homo sapiens, UniProt P57059); test: ADP-Glo kinase assay, SIK1
T1 construct: purchased Carna Biosciences 02-131
Experimental: (§1) The ADP-Glo™ kinase assay is a luminescent technology assay which measures the ADP formed from a kinase reaction. […] In a second step the kinase reactions are terminated and all the remaining ATP is depleted. In a final step the ADP is converted into ATP and this newly synthesized ATP is measured by using a luciferase/luciferin reaction. The generated light is measured using an Envision plate reader, wherein the luminescent signal obtained positively correlates with the kinase activity.
(§2) 1% DMSO and 10 μM staurosporine final concentrations are used as negative and positive controls.
(§3) 2 μL enzyme-substrate mixture is added to the assay plates.
(§4) The reaction is started by adding 2 μL diluted ATP on the assay plates. Plates are centrifuged for a few seconds at 1000 rpm and gently shaken for 2 min followed by an incubation at RT for 120 min.
(§5) The reactions are stopped and the unconsumed ATP is depleted by adding 5 μL ADP-Glo Reagent (Promega, Cat #V912B) to the reaction. The plates are centrifuged for a few seconds at 1000 rpm and incubated at RT for 40 min (ATP depletion).
(§6) The ADP is converted to ATP and luciferase and luciferin is introduced to detect ATP by adding 10 μL Kinase Detection Reagent (Promega, Cat #V913B+V914B) to the reaction. The plates are centrifuged for a few seconds at 1000 rpm and incubated at RT for 30 min (ADP detection).
(§7) Luminescence is measured on an Envision plate reader (PerkinElmer Inc.).

SIK2 = biological target: T2, SIK2 (Homo sapiens, UniProt Q9H0K1); test: ADP-Glo kinase assay, SIK2
T2 construct: purchased ThermoFisher Scientific PV4792
T2 sequence (Q9H0K1 whole entry): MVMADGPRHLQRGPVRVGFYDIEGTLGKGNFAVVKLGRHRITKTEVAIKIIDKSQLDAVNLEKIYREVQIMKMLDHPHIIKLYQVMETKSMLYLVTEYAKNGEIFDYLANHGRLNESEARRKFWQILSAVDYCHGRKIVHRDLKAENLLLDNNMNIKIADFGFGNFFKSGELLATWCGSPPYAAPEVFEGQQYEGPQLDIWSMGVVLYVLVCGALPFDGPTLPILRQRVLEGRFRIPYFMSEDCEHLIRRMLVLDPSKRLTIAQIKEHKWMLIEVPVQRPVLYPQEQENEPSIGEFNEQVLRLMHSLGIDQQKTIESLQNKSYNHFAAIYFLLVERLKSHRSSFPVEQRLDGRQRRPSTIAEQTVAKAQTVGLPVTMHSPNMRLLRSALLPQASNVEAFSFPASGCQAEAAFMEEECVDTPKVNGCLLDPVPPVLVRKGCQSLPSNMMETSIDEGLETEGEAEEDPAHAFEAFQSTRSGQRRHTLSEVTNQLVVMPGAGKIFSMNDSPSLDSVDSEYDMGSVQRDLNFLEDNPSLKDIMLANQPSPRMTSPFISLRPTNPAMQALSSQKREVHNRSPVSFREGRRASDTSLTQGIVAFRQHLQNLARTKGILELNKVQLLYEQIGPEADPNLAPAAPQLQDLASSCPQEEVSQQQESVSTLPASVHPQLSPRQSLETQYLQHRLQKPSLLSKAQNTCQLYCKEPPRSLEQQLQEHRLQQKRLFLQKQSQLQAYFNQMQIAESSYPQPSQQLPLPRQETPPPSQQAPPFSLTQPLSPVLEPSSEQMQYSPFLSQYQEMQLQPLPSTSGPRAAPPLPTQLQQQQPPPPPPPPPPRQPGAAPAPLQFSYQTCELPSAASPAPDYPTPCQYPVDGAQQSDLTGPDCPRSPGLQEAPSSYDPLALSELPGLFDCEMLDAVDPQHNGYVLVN
Experimental: as §1, §2, §3, §4, §5, §6, §7

SIK3 = biological target: T3, SIK3 (Homo sapiens, UniProt Q9Y2K2); test: ADP-Glo kinase assay, SIK3
T3 construct: purchased SignalChem S12-11G-100
T3 sequence (Q9Y2K2 whole entry): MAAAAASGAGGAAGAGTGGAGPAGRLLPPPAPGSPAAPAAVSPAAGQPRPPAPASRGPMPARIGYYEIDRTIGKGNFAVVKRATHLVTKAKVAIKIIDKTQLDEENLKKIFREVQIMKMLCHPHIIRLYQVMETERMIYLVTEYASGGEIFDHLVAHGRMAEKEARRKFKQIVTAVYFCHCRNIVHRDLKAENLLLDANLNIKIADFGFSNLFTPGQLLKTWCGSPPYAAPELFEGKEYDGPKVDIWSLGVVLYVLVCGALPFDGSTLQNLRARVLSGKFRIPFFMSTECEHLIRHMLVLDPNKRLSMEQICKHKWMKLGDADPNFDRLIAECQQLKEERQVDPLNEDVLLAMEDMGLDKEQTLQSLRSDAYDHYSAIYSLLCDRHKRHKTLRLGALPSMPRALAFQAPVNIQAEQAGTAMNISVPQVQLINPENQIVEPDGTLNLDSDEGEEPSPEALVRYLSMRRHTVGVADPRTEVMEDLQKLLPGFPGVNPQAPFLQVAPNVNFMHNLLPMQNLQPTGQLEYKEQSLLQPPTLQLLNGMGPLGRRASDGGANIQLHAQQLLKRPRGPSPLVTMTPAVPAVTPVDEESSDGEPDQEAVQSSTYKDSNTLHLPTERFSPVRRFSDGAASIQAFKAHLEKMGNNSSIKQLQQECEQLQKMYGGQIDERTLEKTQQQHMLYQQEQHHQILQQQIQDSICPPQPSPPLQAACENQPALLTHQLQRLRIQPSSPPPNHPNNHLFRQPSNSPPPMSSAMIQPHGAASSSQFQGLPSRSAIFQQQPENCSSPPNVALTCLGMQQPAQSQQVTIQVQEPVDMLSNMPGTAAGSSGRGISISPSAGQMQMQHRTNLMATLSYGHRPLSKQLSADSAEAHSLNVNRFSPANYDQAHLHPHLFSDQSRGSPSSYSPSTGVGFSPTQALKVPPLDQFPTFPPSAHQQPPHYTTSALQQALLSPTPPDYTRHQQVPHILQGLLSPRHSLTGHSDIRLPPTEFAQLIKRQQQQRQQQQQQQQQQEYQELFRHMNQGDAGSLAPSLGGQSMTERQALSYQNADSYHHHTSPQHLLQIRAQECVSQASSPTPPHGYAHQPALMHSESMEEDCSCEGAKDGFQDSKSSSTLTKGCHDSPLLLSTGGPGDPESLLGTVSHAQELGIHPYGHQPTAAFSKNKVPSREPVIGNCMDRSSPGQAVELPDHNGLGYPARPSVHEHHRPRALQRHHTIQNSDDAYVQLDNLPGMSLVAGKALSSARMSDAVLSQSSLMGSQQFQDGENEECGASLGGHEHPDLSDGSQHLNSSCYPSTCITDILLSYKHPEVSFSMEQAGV
Experimental: as §1, §2, §3, §4, §5, §6, §7

T1 sequence (P57059 whole entry): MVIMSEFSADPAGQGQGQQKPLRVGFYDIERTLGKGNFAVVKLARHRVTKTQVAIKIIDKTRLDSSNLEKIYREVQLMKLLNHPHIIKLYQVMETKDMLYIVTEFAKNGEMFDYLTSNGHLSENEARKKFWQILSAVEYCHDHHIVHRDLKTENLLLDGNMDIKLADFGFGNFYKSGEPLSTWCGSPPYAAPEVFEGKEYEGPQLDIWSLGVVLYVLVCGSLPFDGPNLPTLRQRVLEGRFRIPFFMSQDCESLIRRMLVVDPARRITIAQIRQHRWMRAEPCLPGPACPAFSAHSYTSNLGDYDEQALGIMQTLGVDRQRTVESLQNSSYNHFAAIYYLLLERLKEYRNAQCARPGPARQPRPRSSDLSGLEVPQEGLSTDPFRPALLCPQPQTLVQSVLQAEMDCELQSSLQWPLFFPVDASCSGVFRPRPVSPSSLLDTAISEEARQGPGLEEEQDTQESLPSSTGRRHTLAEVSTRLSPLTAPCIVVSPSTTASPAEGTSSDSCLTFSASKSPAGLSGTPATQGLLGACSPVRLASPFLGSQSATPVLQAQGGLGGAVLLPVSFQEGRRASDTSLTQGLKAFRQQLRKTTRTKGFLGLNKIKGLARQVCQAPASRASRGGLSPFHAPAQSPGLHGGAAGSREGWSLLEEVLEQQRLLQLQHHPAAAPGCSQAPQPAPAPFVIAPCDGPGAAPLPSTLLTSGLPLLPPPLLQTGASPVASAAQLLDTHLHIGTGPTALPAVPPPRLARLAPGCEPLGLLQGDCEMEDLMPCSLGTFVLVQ

| SMILES | IC50 (SIK1) [nM] | IC50 (SIK2) [nM] | IC50 (SIK3) [nM] |
| --- | --- | --- | --- |
| COc1cc(-c2cnc3cc(OCCCN4CCCCC4)ccn23)cc(OC(F)F)c1C(=O)N[C@H]1CC[C@H]1O (racemic) [compound 353, 2-(difluoromethoxy)-6-methoxy-4-[7-[3-(1-piperidyl)propoxy]imidazo [1,2-a]pyridin-3-yl]-N-[(1S,2R)-2-hydroxycyclobutyl] benzamide/2-(difluoromethoxy)-N-[(1R,2S)-2-hydroxycyclobutyl]-6-methoxy-4-[7-[3-(1-piperidyl)propoxy]imidazo[1,2-a]pyridin-3-yl]benzamide mixture] | 100 to 500 | 0.01 to 10 | 10 to 100 |
| COc1cc(-c2cnc3cc(OCCCN4CCCCC4)ccn23)cc(OC(F)F)c1C(=O)N[C@@H]1CC[C@H]1O (racemic) [compound 359, 2-(difluoromethoxy)-N-[(1R,2R)-2-hydroxycyclobutyl]-6-methoxy-4-[7-[3-(1-piperidyl)propoxy]imidazo[1,2-a]pyridin-3-yl]benzamide/2-(difluoromethoxy)-N-[(1S,2S)-2-hydroxycyclobutyl]-6-methoxy-4-[7-[3-(1-piperidyl)propoxy]imidazo[1,2-a]pyridin-3-yl]benzamide mixture] | 100 to 500 | 0.01 to 10 | 10 to 100 |
| COc1cc(-c2cnc3cc(OC4CCOCC4)ccn23)cc(OC)c1C(=O)NCC(F)(F)F [Cpd 4, 2,6-dimethoxy-4-(7-tetrahydropyran-4-yloxyimidazo[1,2-a]pyridin-3-yl)-N-(2,2,2-trifluoroethyl) benzamide] | > 500 | 100 to 500 | 10 to 100 |
| COc1cc(-c2cnc3cc(OC4CCCN(C)C4)ccn23)cc(OC)c1C(=O)NCC(F)(F)F (stereo not drawn) [Cpd 5, 2,6-dimethoxy-4-[7-[(1-methyl-3-piperidyl)oxy]imidazo[1,2-a]pyridin-3-yl]-N-(2,2,2-trifluoroethyl)benzamide] | > 500 | 100 to 500 | 10 to 100 |
| CCOCCOc1cc(-c2cnc3cc(OCCN(C)C)ccn23)cc(OC)c1C(=O)NC1CC1 [Cpd 56, N-cyclopropyl-4-[7-[2-(dimethylamino)ethoxy]imidazo [1,2-a]pyridin-3-yl]-2-(2-ethoxyethoxy)-6-methoxy-benzamide] | > 500 | 100 to 500 | 100 to 500 |
| COc1cc(-c2cnc3cc(OCc4ccccc4)ncn23)cc(OC(F)F)c1C(=O)NC1CC1 [Cpd 159, 4-(7-benzyloxyimidazo[1,2-c]pyrimidin-3-yl)-N-cyclopropyl-2-(difluoromethoxy)-6-methoxy-benzamide] | 100 to 500 | 10 to 100 | 0.01 to 10 |
| CCn1ccnc1COc1ccn2c(-c3cc(OC)c(C(=O)NC4CC4)c(OC(F)F)c3)cnc2c1 [Cpd 173, N-cyclopropyl-2-(difluoromethoxy)-4-[7-[(1-ethylimidazol-2-yl)methoxy]imidazo[1,2-a]pyridin-3-yl]-6-methoxy-benzamide] | 100 to 500 | 0.01 to 10 | 0.01 to 10 |
| COc1cc(-c2cnc3cc(OCCN4CC(C)OC(C)C4)ccn23)cc(OC(F)F)c1C(=O)NC1CC1 (stereo not drawn) [Cpd 177, N-cyclopropyl-2-(difluoromethoxy)-4-[7-[2-(2,6-dimethylmorpholin-4-yl)ethoxy]imidazo [1,2-a]pyridin-3-yl]-6-methoxy-benzamide] | 10 to 100 | 0.01 to 10 | 0.01 to 10 |

Other lines, results leading:

| IC50 (SIK1) [nM] | IC50 (SIK2) [nM] | IC50 (SIK3) [nM] | SMILES |
| --- | --- | --- | --- |
| 10 to 100 | 0.01 to 10 | 0.01 to 10 | COc1cc(-c2cnc3cc(OC[C@H]4CNCC[C@@H]4O)ccn23)cc(OC(F)F)c1C(=O)NC1CC1 (racemic) [Cpd 373, N-cyclopropyl-2-(difluoromethoxy)-4-[7-[[(3R,4S)-4-hydroxy-3-piperidyl]methoxy]imidazo [1,2-a]pyridin-3-yl]-6-methoxy-benzamide/ N-cyclopropyl-2-(difluoromethoxy)-4-[7-[[(3S,4R)-4-hydroxy-3-piperidyl]methoxy]imidazo [1,2-a]pyridin-3-yl]-6-methoxy-benzamide mixture] |
| 0.01 to 10 | 0.01 to 10 | 0.01 to 10 | COc1cc(-c2cnc3cc(OCC4CCC4)ccn23)cc(OC(F)F)c1C(=O)NC1CC1 [Cpd 71, 4-[7-(cyclobutylmethoxy)imidazo[1,2-a]pyridin-3-yl]-N-cyclopropyl-2-(difluoromethoxy)-6-methoxy-benzamide] |
| 10 to 100 | 0.01 to 10 | 0.01 to 10 | COc1cc(-c2cnc3cc(OCc4cn(C)cn4)ccn23)cc(OC(F)F)c1C(=O)NC1CC1 [Cpd 101, N-cyclopropyl-2-(difluoromethoxy)-6-methoxy-4-[7-[(1-methylimidazol-4-yl)methoxy]imidazo[1,2-a]pyridin-3-yl]benzamide] |
| 10 to 100 | 0.01 to 10 | 0.01 to 10 | COc1cc(-c2cnc3cc(OCC4CCN4)ccn23)cc(OC(F)F)c1C(=O)NC1CC1 (stereo not drawn) [Cpd 109, 4-[7-(azetidin-2-ylmethoxy)imidazo[1,2-a]pyridin-3-yl]-N-cyclopropyl-2-(difluoromethoxy)-6-methoxy-benzamide] |
| 10 to 100 | 0.01 to 10 | 0.01 to 10 | COc1cc(-c2cnc3cc(OCC4COCCN4)ccn23)cc(OC(F)F)c1C(=O)NC1CC1 (stereo not drawn) [Cpd 113, N-cyclopropyl-2-(difluoromethoxy)-6-methoxy-4-[7-(morpholin-3-ylmethoxy)imidazo[1,2-a]pyridin-3-yl]benzamide] |
| 0.01 to 10 | 0.01 to 10 | 0.01 to 10 | COc1cc(-c2cnc3cc(OCC4CCCCN4S(C)(=O)=O)ccn23)cc(OC(F)F)c1C(=O)NC1CC1 (stereo not drawn) [Cpd 129, N-cyclopropyl-2-(difluoromethoxy)-6-methoxy-4-[7-[(1-methylsulfonyl-2-piperidyl)methoxy]imidazo[1,2-a]pyridin-3-yl]benzamide] |
| 0.01 to 10 | 0.01 to 10 | 0.01 to 10 | COC(=O)N1CCCCC1COc1ccn2c(-c3cc(OC)c(C(=O)NC4CC4)c(OC(F)F)c3)cnc2c1 (stereo not drawn) [Cpd 130, methyl 2-[[3-[4-(cyclopropylcarbamoyl)-3-(difluoromethoxy)-5-methoxy-phenyl]imidazo[1,2-a]pyridin-7-yl]oxymethyl]piperidine-1-carboxylate] |
| 0.01 to 10 | 0.01 to 10 | 0.01 to 10 | COc1cc(-c2cnc3cc(OCC4CCCCN4C(C)=O)ccn23)cc(OC(F)F)c1C(=O)NC1CC1 (stereo not drawn) [Cpd 141, 4-[7-[(1-acetyl-2-piperidyl)methoxy]imidazo [1,2-a]pyridin-3-yl]-N-cyclopropyl-2-(difluoromethoxy)-6-methoxy-benzamide] |
| 100 to 500 | 0.01 to 10 | 0.01 to 10 | CNC(C)(C)COc1ccn2c(-c3cc(OC)c(C(=O)NC4CC4)c(OC(F)F)c3)cnc2c1 [Cpd 153, N-cyclopropyl-2-(difluoromethoxy)-6-methoxy-4-[7-[2-methyl-2-(methylamino)propoxy]imidazo[1,2-a]pyridin-3-yl]benzamide] |
| 10 to 100 | 0.01 to 10 | 0.01 to 10 | COc1cc(-c2cnc3cc(OCC4CCCN4)ccn23)cc(OC(F)F)c1C(=O)NC1CC1 (stereo not drawn) [Cpd 154, N-cyclopropyl-2-(difluoromethoxy)-6-methoxy-4-[7-(pyrrolidin-2-ylmethoxy)imidazo[1,2-a]pyridin-3-yl]benzamide] |
